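Following 48 hours of exposure in 96-well plates, responses at five concentrations were used to interpolate endpoints linearly. GI50 = concentration required for 50% inhibition of growth. TGI marks complete inhibition of growth.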
Key:
Assay in all cases: DTP human tumour cell line panel, 48 h
CCRF-CEM leukemia = test system: CCRF-CEM leukemia
COLO 205 colon = test system: COLO 205 colon
EKVX NSCLC = test system: EKVX NSCLC
HCC-2998 colon = test system: HCC-2998 colon
M14 melanoma = test system: M14 melanoma
NCI-H23 lung = test system: NCI-H23 lung
SF-539 CNS = test system: SF-539 CNS
SK-MEL-28 melanoma = test system: SK-MEL-28 melanoma
TK-10 renal = test system: TK-10 renal
UO-31 renal = test system: UO-31 renal

| SMILES | TGI (CCRF-CEM leukemia) [µM] | TGI (COLO 205 colon) [µM] | TGI (EKVX NSCLC) [µM] | TGI (HCC-2998 colon) [µM] | TGI (M14 melanoma) [µM] | TGI (NCI-H23 lung) [µM] | TGI (SF-539 CNS) [µM] | TGI (SK-MEL-28 melanoma) [µM] | TGI (TK-10 renal) [µM] | TGI (UO-31 renal) [µM] | GI50 (CCRF-CEM leukemia) [µM] | GI50 (COLO 205 colon) [µM] | GI50 (EKVX NSCLC) [µM] | GI50 (HCC-2998 colon) [µM] | GI50 (M14 melanoma) [µM] | GI50 (NCI-H23 lung) [µM] | GI50 (SF-539 CNS) [µM] | GI50 (SK-MEL-28 melanoma) [µM] | GI50 (TK-10 renal) [µM] | GI50 (UO-31 renal) [µM] |
| --- | --- | --- | --- | --- | --- | --- | --- | --- | --- | --- | --- | --- | --- | --- | --- | --- | --- | --- | --- | --- |
| O=c1oc2cc(O)ccc2c(O)c1C(c1ccccc1)c1c(O)c2ccc(O)cc2oc1=O | > 100 | > 100 | > 100 | > 100 | > 100 | > 100 | > 100 | > 100 | > 100 | > 100 | – | – | – | – | – | – | – | – | – | – |
| O=C1CC2(CCC(O)(c3ccc4ccccc4c3)C(C(=O)c3ccc4ccccc4c3)C2)C(=O)c2ccccc2N1 (stereo not given) | > 100 | > 100 | > 100 | > 100 | > 100 | > 100 | > 100 | > 100 | > 100 | > 100 | – | – | – | – | – | – | – | – | – | – |
| COc1cnc2c(c1)C(=O)c1c-2n(CCCN2CCOCC2)c(=O)c2cc(Cl)ccc12 | > 100 | > 100 | > 100 | > 100 | > 100 | > 100 | 0.65 | > 100 | > 100 | > 100 | 0.12 | 0.193 | > 100 | > 100 | 0.323 | 0.308 | 0.23 | > 100 | > 100 | 0.349 |
| O=C1CCC(c2ccccc2)=NN1c1nsc2ccccc12 | > 100 | > 100 | > 100 | > 100 | > 100 | > 100 | > 100 | > 100 | > 100 | > 100 | – | – | – | – | – | – | – | – | – | – |
| Nc1ncc(-c2ccc3ncnc(Nc4ccc(F)c(Cl)c4)c3c2)cn1 | > 100 | 11.2 | 38 | > 100 | 17.1 | 39.3 | 2.93 | 17.6 | 1.42 | 3.02 | 2.86 | 2.5 | 0.252 | 22.2 | 3.74 | 2.81 | 1.52 | 3.08 | 0.132 | 0.5 |
| O=C(O)C(Cl)(Cl)Cl | > 100 | > 100 | > 100 | > 100 | > 100 | > 100 | > 100 | > 100 | > 100 | > 100 | – | – | – | – | – | – | – | – | – | – |

Source: PubChem BioAssay (NCI)
